d = 2'-deoxy (DNA); r = 2'-OH (RNA)
Test system: A549 cells-derived tumors
Assay: Next-generation sequencing (NGS) of si-NT- and si-hSMAC-A-treated tumors
Type: in vivo, human
Procedure: Libraries were prepared by the INCPM-RNA-seq unit (Weizmann Institute, Israel). Briefly, polyA fraction (mRNA) was purified from 500 ng of total RNA, isolated as above, followed by fragmentation and generation of double stranded cDNA. End repair, a base addition, adapter ligation and PCR amplification steps were performed according to established methods. Libraries were evaluated by Qubit and TapeStation. Sequencing libraries were constructed with barcodes to allow multiplexing of 20 samples in one lane. Between 22 and 26 million reads single-end 60-bp reads were sequenced per sample on Illumina HiSeq 2500 V4 instrument.
Bioinformatics analyses were carried out at the Bioinformatics Core Facility at the National Institute for Biotechnology in the Negev, Ben-Gurion University. Raw sequence reads were assessed for quality using FASTQC and further trimmed for removal of remaining adaptors and low quality bases using Trimmomatic. The trimmed reads from each sample were separately aligned to the human and mouse genomes (GRCh38 and GRCm38.75, respectively) using STAR v2.3.0 with default settings. An average of 23.7±0.8 million reads per sample was obtained. Of these, an average of 13, 2.6, 7.8 and 0.3 million reads were mapped to human only, mouse only, both human and mouse, and none of them, respectively. After rejection of multi-mapped reads, a total of 11.5±2.5 human-specific, uniquely mapped reads, and 2.3±1.7 mouse-specific, uniquely mapped reads were subjected for further analysis. The number of aligned reads per gene per sample were counted using HTSeq count with “intersection-nonempty” (to handle reads that overlap with more than one gene) and “no stranded” as parameters. The other parameters were set to their default. Normalization and statistical analysis for differential expression were carried out using DESeq2 v1.6.3. Fold change values were converted to linear scale, with a minus sign indicating down-regulation.
Differentially expressed genes were defined as those having a p-value<0.05, and linear fold change>1.5 and <−1.5. Functional analysis was performed using the Gene Ontology system, DAVID and Expander software tools.
NGS was used to investigate changes in patterns of gene expression in si-NT-TTs and si-hSMAC-A-TTs (FIG. 10, and Tables 3-5). […] As si-hSMAC is human-specific, any effect on mouse gene expression must be mediated by the human tumor cells.
The major functional groups were changes were seen are presented below.

[1] = vs si-NT-TTs, ENDOPLASMIC AND GOLGI LUMENS
[2] = vs si-NT-TTs, ENDOPLASMIC AND GOLGI LUMENS / METABOLISM RELATED ENZYMES
[3] = vs si-NT-TTs, ER AND MITOCHONDRIA
[4] = vs si-NT-TTs, EXTRACELLULAR MATRIX

si-hSMAC-A: siRNA to human SMAC/Diablo; sense 5′AAGCGGUGUUUCUCAGAAUUGtt3′ (SEQ ID NO:20), antisense 5′AACAAUUCUGAGAAACCCGCtt3′ (SEQ ID NO:21) (sense AAGCGGUGUUUCUCAGAAUUGTT; antisense AACAAUUCUGAGAAACCCGCTT; sense: sugars from the 5' end r21 d2, backbone not given here; antisense: sugars from the 5' end r20 d2, backbone not given here)
Fold change, ACKR3-atypical chemokine receptor 3 gene expression (NGS, si-hSMAC-A- vs si-NT-treated A549 cells-derived tumors, gene ACKR3): −2.2
Fold change, C5-complement component 5 gene expression (NGS, si-hSMAC-A- vs si-NT-treated A549 cells-derived tumors, gene C5): −1.7
Fold change, C5AR1 (CD88)-complement component 5a receptor 1 gene expression (NGS, si-hSMAC-A- vs si-NT-treated A549 cells-derived tumors, gene C5AR1): −1.7
Fold change, CCL24-chemokine (C-C motif) ligand 24 gene expression (NGS, si-hSMAC-A- vs si-NT-treated A549 cells-derived tumors, gene CCL24): 1.9
Fold change, CCL28-chemokine (C-C motif) ligand 28 gene expression (NGS, si-hSMAC-A- vs si-NT-treated A549 cells-derived tumors, gene CCL28): 1.9
Fold change, CD274-(PD-L1) molecule gene expression (NGS, si-hSMAC-A- vs si-NT-treated A549 cells-derived tumors, gene CD274): −1.9
Fold change, CREB3L3-CAMP responsive element binding protein 3-like 3 gene expression (NGS, si-hSMAC-A- vs si-NT-treated A549 cells-derived tumors, gene CREB3L3): 2.0
Fold change, CX3CL1-chemokine (C-X3-C motif) ligand 1 gene expression (NGS, si-hSMAC-A- vs si-NT-treated A549 cells-derived tumors, gene CX3CL1): 1.6
Fold change, GAS6-growth arrest-specific 6 gene expression (NGS, si-hSMAC-A- vs si-NT-treated A549 cells-derived tumors, gene GAS6): −1.7
Fold change, IL1R1-interleukin 1 receptor, type I gene expression (NGS, si-hSMAC-A- vs si-NT-treated A549 cells-derived tumors, gene IL1R1): −1.6
Fold change, IL6-interleukin 6 gene expression (NGS, si-hSMAC-A- vs si-NT-treated A549 cells-derived tumors, gene IL6): −2.5
Fold change, IL18BP-interleukin 18 binding protein gene expression (NGS, si-hSMAC-A- vs si-NT-treated A549 cells-derived tumors, gene IL18BP): −1.6
Fold change, IL27RA-interleukin 27 receptor, alpha gene expression (NGS, si-hSMAC-A- vs si-NT-treated A549 cells-derived tumors, gene IL27RA): −1.6
Fold change, IRF6-interferon regulatory factor 6 gene expression (NGS, si-hSMAC-A- vs si-NT-treated A549 cells-derived tumors, gene IRF6): 1.6
Fold change, LBP-lipopolysaccharide binding protein gene expression (NGS, si-hSMAC-A- vs si-NT-treated A549 cells-derived tumors, gene LBP): −2.1
Fold change, MRC2 (ENDO180)-mannose receptor, C type 2 gene expression (NGS, si-hSMAC-A- vs si-NT-treated A549 cells-derived tumors, gene MRC2): −1.7
Fold change, OSMR-oncostatin M receptor gene expression (NGS, si-hSMAC-A- vs si-NT-treated A549 cells-derived tumors, gene OSMR): −1.7
Fold change, PROC-protein C gene expression (NGS, si-hSMAC-A- vs si-NT-treated A549 cells-derived tumors, gene PROC): 1.8
Fold change, PTGS2 (Cox-2)-prostaglandin-endoperoxide synthase 2 gene expression (NGS, si-hSMAC-A- vs si-NT-treated A549 cells-derived tumors, gene PTGS2): −1.8
Fold change, TLR3-toll-like receptor 3 gene expression (NGS, si-hSMAC-A- vs si-NT-treated A549 cells-derived tumors, gene TLR3): −1.7
Fold change, TNFAIP6 (TSG6) gene expression (NGS, si-hSMAC-A- vs si-NT-treated A549 cells-derived tumors, gene TNFAIP6): −1.6
Fold change, TNFSF14 (LIGHT) gene expression (NGS, si-hSMAC-A- vs si-NT-treated A549 cells-derived tumors, gene TNFSF14): −1.8
expression of genes associated with inflammation and the tumor microenvironment (in vivo): reduction
number of human genes down-regulated (in vivo): ~242
number of human genes up-regulated (in vivo): about 186
Fold change ACKR3 (vs si-NT-TTs, CELL MEMBRANE): −2.2 fold
Fold change BAMBI (vs si-NT-TTs, CELL MEMBRANE): 1.7 fold
Fold change C5AR1 (CD88) (vs si-NT-TTs, CELL MEMBRANE): −1.7 fold
Fold change CDH3 (vs si-NT-TTs, CELL MEMBRANE): 1.7 fold
Fold change CLDN4 (vs si-NT-TTs, CELL MEMBRANE): 2.4 fold
Fold change CLMP (vs si-NT-TTs, CELL MEMBRANE): −1.7 fold
Fold change CNTNAP2 (vs si-NT-TTs, CELL MEMBRANE): −1.8 fold
Fold change DSC2 (vs si-NT-TTs, CELL MEMBRANE): 1.6 fold
Fold change EMP1 (vs si-NT-TTs, CELL MEMBRANE): 1.8 fold
Fold change ITGA1 (CD49a) (vs si-NT-TTs, CELL MEMBRANE): −1.9 fold
Fold change TNS1 (vs si-NT-TTs, CELL MEMBRANE): −1.6 fold
Fold change ABCC6 [1]: −2.3 fold
Fold change AGR3 [1]: 4.1 fold
Fold change AHCYL2 [1]: −1.7 fold
Fold change BACE1 [1]: −1.5 fold
Fold change CEMIP [1]: −3.6 fold
Fold change CHERP [1]: −1.7 fold
Fold change CLGN [1]: −1.9 fold
Fold change COX10-AS1 [1]: −2.1 fold
Fold change CYP26B1 [1]: −1.8 fold
Fold change FAM20A [1]: −4.4 fold
Fold change FOXRED2 [1]: −1.5 fold
Fold change ITPR1 [1]: −1.7 fold
Fold change NCK2 [1]: 2.0 fold
Fold change P4HA3 [1]: −1.9 fold
Fold change PCSK5 [1]: −2.3 fold
Fold change PPAP2B [1]: −1.8 fold
Fold change PTGS2 (COX-2) [1]: −1.8 fold
Fold change RIC3 [1]: −2.7 fold
Fold change RYR1 [1]: 2.5 fold
Fold change SEC61G [1]: 1.8 fold
Fold change TM4SF20 [1]: −1.7 fold
Fold change TMEM147-AS [1]: −1.7 fold
Fold change UGT1A7 [1]: −3.5 fold
Fold change UGT1A9 [1]: −17.2 fold
Fold change ACAD10 [2]: −1.7 fold
Fold change H6PD (GDH) [2]: −1.6 fold
Fold change KLK6 [3]: 25.83 fold
Fold change SGK1 [3]: −1.7 fold
Fold change CD9 (TSPAN29) (vs si-NT-TTs, EXOSOMES): 1.5 fold
Fold change CD63 (TSPAN30) (vs si-NT-TTs, EXOSOMES): 3.5 fold
Fold change CD274 (PD-L1) (vs si-NT-TTs, EXOSOMES): −1.9 fold
Fold change CEACAM5 (CD66e) (vs si-NT-TTs, EXOSOMES): 2.2 fold
Fold change EPCAM (vs si-NT-TTs, EXOSOMES): 2.7 fold
Fold change FSTL1 (vs si-NT-TTs, EXOSOMES): −1.8 fold
Fold change GAS6 (vs si-NT-TTs, EXOSOMES): −1.7 fold
Fold change GP1BA (vs si-NT-TTs, EXOSOMES): −1.7 fold
Fold change HSPG2 (Perlecan) (vs si-NT-TTs, EXOSOMES): −1.7 fold
Fold change IGFBP7 (vs si-NT-TTs, EXOSOMES): −1.8 fold
Fold change NID2 (vs si-NT-TTs, EXOSOMES): −2.1 fold
Fold change RAB17 (vs si-NT-TTs, EXOSOMES): 1.9 fold
Fold change TSPAN8 (vs si-NT-TTs, EXOSOMES): 1.6 fold
Fold change TSPAN13 (vs si-NT-TTs, EXOSOMES): 1.8 fold
Fold change VAMP8 (vs si-NT-TTs, EXOSOMES): 1.9 fold
Fold change CANT1 (vs si-NT-TTs, EXOSOMES / METABOLISM RELATED ENZYMES): 1.5 fold
Fold change ABI3BP (TARSH) [4]: −2.4 fold
Fold change ADAMTS9 [4]: −2.2 fold
Fold change BMP2 [4]: −1.8 fold
Fold change BMPER [4]: −1.7 fold
Fold change CCBE1 [4]: −2.7 fold
Fold change COL4A1 [4]: −2.2 fold
Fold change COL4A2 [4]: −1.8 fold
Fold change COL5A1 [4]: −1.5 fold
Fold change COL12A1 [4]: −1.5 fold
Fold change COL17A1 (BP180) [4]: 2.1 fold
Fold change EDIL3 (Del1) [4]: −2.5 fold

— patent publication US11976280B2, “SMAC/Diablo inhibitors useful for treating cancer” (THE NATIONAL INSTITUTE FOR BIOTECHNOLOGY IN THE NEGEV LTD., priority 2017, dated 2024)
